Data as given in paper PMC9050923, “6,N^2-Diaryl-1,3,5-triazine-2,4-diamines: synthesis, antiproliferative activity and 3D-QSAR modeling” (RSC Advances, 2020).

Assays:
Assay type in all cases: cell-based
[1] = test system: MCF-7; experiment: MTT assay, MCF-7 breast cancer cells; conditions: 72 h after the treatment, mean of three independent experiments; for viability at 10 µM: Homo sapiens, MCF7, 10 μM, read-out: Percentage of cell viability MCF-7
Protocol: (§1) The prepared compounds 1–126 were tested on three breast cancer cell lines namely, MDA-MB231, SKBR-3 and MCF-7 using MTT assay. SKBR-3 and MCF-7 cell lines are estrogen and progesterone hormone positive cell lines often used as a model for the hormone therapy.[18] MDA-MB231 is triple negative breast cancer cell line, which is negative to estrogen and progesterone receptors and human epidermal growth factor receptor 2, a perfect model for chemotherapy.[18] Initially, all the prepared compounds 1–126 were tested on these three cancer cell lines at the screening concentration (10 μM) and percentage of cell viability was calculated 72 h after the treatment (Table 1).
(§2) The growth inhibitory effect of the compounds was determined on breast tumor cell line (MDA-MB231, SKBR-3 and MCF-7) at different concentrations with methotrexate and nilotinib as positive controls (Table 2).
(§3) The cytotoxic activity of 6,N^2-diaryl-1,3,5-triazine-2,4-diamines (1–126) was evaluated against three breast carcinoma cell lines (MDA-MB231, SKBR-3, and MCF-7) and normal breast cell line (MCF-10A) by MTT assay.[22] All cells were obtained from the American Type Culture Collection and were grown in 10% fetal bovine serum and 1% pen-strep antibiotic supplemented media (DMEM for MDA-MB231 and SKBR-3, RPMI for MCF-7, and MEGM for MCF-10A). For MTT assay, 20 000 to 75 000 cells per mL (based on the doubling time for each cell line) were seeded in 96 well plates and incubated for 24 h at 37 °C in 5% CO2 incubator. Then, compounds at different concentrations were added followed by the incubation at 37 °C for 72 h. After that, MTT solution (0.5 mg mL^−1) was added and the plates were incubated for another 4 h. The supernatant was then discarded and 100 μL of DMSO was added to each well. The plates were then read by Tecan NanoQuant (model: infinite m200 pro) plate reader and absorbance was measured at 570 nm. GI50 values were calculated using sigmoidal concentration–response curves (see ESI ^†) generated using the GraphPad Prism 7 program. Three independent experiments were carried out and the data were represented as mean of the three experiments.

[2] = test system: SKBR-3; experiment: MTT assay, SKBR-3 breast cancer cells; conditions: 10 μM, 72 h after the treatment, MTT, mean of three independent experiments; for viability at 10 µM: Homo sapiens, SK-BR-3, read-out: Percentage of cell viability SKBR-3
Protocol: as §1, §2, §3

[3] = test system: MDA-MB231; experiment: MTT assay, MDA-MB231 breast cancer cells; conditions: 10 μM, 72 h after the treatment, MTT, mean of three independent experiments; for viability at 10 µM: Homo sapiens, MDA-MB-231, read-out: Percentage of cell viability MDA-MB231
Protocol: as §1, §2, §3

Row | Molecule | viability at 10 µM [1] [%] | viability at 10 µM [2] [%] | viability at 10 µM [3] [%] | Percentage of cell viability MCF-7 ([1]; 10 μM) [%] | Percentage of cell viability SKBR-3 [2] [%] | Percentage of cell viability MDA-MB231 [3] [%]
1 | Nc1nc(Nc2ccccc2)nc(-c2ccc(F)cc2)n1 [Compound 21] | 100 | 94 | 83 | – | – | –
2 | Nc1nc(Nc2ccc(Cl)cc2)nc(-c2ccc(Cl)cc2)n1 [Compound 39] | 100 | 100 | 97 | – | – | –
3 | Nc1nc(Nc2ccccc2F)nc(-c2ccc(Cl)cc2)n1 [Compound 35] | 93 | 99 | 82 | – | – | –
4 | Nc1nc(Nc2ccccc2)nc(-c2cccs2)n1 [Compound 115] | 91 | 87 | 100 | – | – | –
5 | CC(C)c1ccc(Nc2nc(N)nc(-c3ccc(Cl)cc3)n2)cc1 [Compound 44] | 96 | 97 | 100 | – | – | –
6 | COc1ccccc1Nc1nc(N)nc(-c2ccccc2)n1 [Compound 8] | 91 | 97 | 78 | – | – | –
7 | Nc1nc(Nc2ccc(Cl)cc2)nc(-c2ccc(Br)cc2)n1 [Compound 49] | 100 | 100 | 96 | – | – | –
8 | Cc1ccc(-c2nc(N)nc(Nc3cccnc3)n2)cc1 [Compound 69] | 88 | 79 | 74 | – | – | –
9 | CC(C)c1ccc(Nc2nc(N)nc(-c3ccc(N(C)C)cc3)n2)cc1 [Compound 104] | 100 | 87 | 70 | – | – | –
10 | Nc1nc(Nc2ccc(OC(F)(F)F)cc2)nc(-c2cccs2)n1 [Compound 124] | 85 | 86 | 100 | – | – | –
11 | N ^2-(4-Methoxyphenyl)-6-(4-methylphenyl)-1,3,5-triazine-2,4-diamine [Compound 65] | – | – | – | 87 | 88 | 97
12 | Nc1nc(Nc2ccccc2F)nc(-c2cccs2)n1 [Compound 116, N ^2-(2-Fluorophenyl)-6-(thiophen-2-yl)-1,3,5-triazine-2,4-diamine] | 90 | 78 | 98 | – | – | –
13 | Nc1nc(Nc2ccc(OC(F)(F)F)cc2)nc(-c2ccc(F)cc2)n1 [Compound 31] | 87 | 92 | 88 | – | – | –
14 | Nc1nc(Nc2ccccc2Cl)nc(-c2cccs2)n1 [Compound 118] | 91 | 78 | 100 | – | – | –
15 | Cc1ccc(Nc2nc(N)nc(-c3ccc(C(F)(F)F)cc3)n2)cc1 [Compound 86] | 83 | 95 | 54 | – | – | –
16 | CC(C)(C)c1ccc(-c2nc(N)nc(Nc3ccc(Cl)cc3)n2)cc1 [Compound 107] | 98 | 92 | 100 | – | – | –
17 | Nc1nc(Nc2ccccc2Cl)nc(-c2ccc(Cl)cc2)n1 [Compound 37] | 99 | 89 | 99 | – | – | –
18 | Nc1nc(Nc2cccnc2)nc(-c2ccccc2)n1 [Compound 12] | 87 | 78 | 59 | – | – | –
19 | COc1ccc(-c2nc(N)nc(Nc3ccc(Cl)cc3)n2)cc1 [Compound 75] | 100 | 100 | 99 | – | – | –
20 | Cc1ccc(-c2nc(N)nc(Nc3ccc(Br)cc3)n2)cc1 [Compound 63] | 93 | 100 | 87 | – | – | –
21 | COc1ccccc1Nc1nc(N)nc(-c2ccc(C(F)(F)F)cc2)n1 [Compound 87] | 100 | 85 | 63 | – | – | –
